In US20100152215A1, “METHODS OF IDENTIFYING ACTIVATORS OF LYN KINASE” (MELIOR PHARMACEUTICALS I, INC., priority 2007, published 2010):

Columns and labels:
CaMK2a = CaMK2a (Homo sapiens, UniProt Q9UQM7); test: kinase screen for inhibition or activation; type: biochemical; conditions: 10 μM
Method: (§1) A kinase screen was conducted in which Compound 102 (10 μM) was screened against 49 kinases for inhibition or activation. Any kinase that was activated or inhibited by at least 20% was considered to be a significant effect. Of the 49 kinases screened, Lyn kinase was activated by 51%. In a repeat experiment, Lyn kinase activity was increased by 57%.

CaMK4 = CaMK4 (Homo sapiens, UniProt Q16566); test: kinase screen for inhibition or activation; type: biochemical; conditions: 10 μM
Method: as §1

FGFR3 = FGFR3 (Homo sapiens, UniProt P22607); test: kinase screen for inhibition or activation; type: biochemical; conditions: 10 μM
Method: as §1

Fyn = Fyn (Homo sapiens, UniProt P06241); test: kinase screen for inhibition or activation; type: biochemical; conditions: 10 μM
Method: as §1

GSK3b = GSK3b (Homo sapiens, UniProt P49841); test: kinase screen for inhibition or activation; type: biochemical; conditions: 10 μM
Method: as §1

IGF1R = IGF1R (Homo sapiens, UniProt P08069); test: kinase screen for inhibition or activation; type: biochemical
Method: as §1

MSK1 = MSK1 (Homo sapiens, UniProt O75582); test: kinase screen for inhibition or activation; type: biochemical; conditions: 10 μM
Method: as §1

PKD2 = PKD2 (Homo sapiens, UniProt Q9BZL6); test: kinase screen for inhibition or activation; type: biochemical; conditions: 10 μM
Method: as §1

RSK1 = RSK1 (Homo sapiens, UniProt Q15418); test: kinase screen for inhibition or activation; type: biochemical; conditions: 10 μM
Method: as §1

Lyn (h) = Lyn (h) (Homo sapiens, UniProt P07948); test: Lyn kinase activation, pre-incubation then standard radiometric assay; type: biochemical
[1] = molecular target: unphosphorylated Lyn kinase (Homo sapiens, UniProt P07948); test: Z'-LYTE Kinase Assay Kit-Tyr Peptide-2 Lyn kinase activation assay; type: biochemical; conditions: for Fold-Activation: 30 μM vs DMSO; for % Phosphorylation of Substrate: 30 μM
Method: The following example was conducted to further optimize assay conditions for detecting Compound 102-mediated activation of Lyn kinase. The assays describe below utilize the Z′-LYTE™ Kinase Assay Kit-Tyr Peptide (Invitrogen, Carlsbad, Calif.). These assay systems were originally developed to detect inhibitors of various tyrosine kinases.
The assay system used was a non-radiometric assay utilizing the Z′-LYTE™ Kinase Assay Kit-Tyr Peptide-2 (Invitrogen, Carlsbad, Calif.) for detecting activity of Lyn kinase. Buffer components were altered as described below. The lyn kinase protein used in these studies was the unphosphorylated form of the protein. Concentrations of this unphosphorylated lyn protein ranged from 25 ng/mL to 300 ng/mL. The preincubation step was lengthened from 30 minutes to 60 minutes.
The Invitrogen Reaction Buffer was used for all studies. The following additions were made to this Reaction Buffer and tested separately and compared to Reaction Buffer alone: Modification 1: Reaction Buffer with 0.1% BSA; Modification 2: Reaction Buffer with 1 mM dithiothreitol; Modification 3: Reaction Buffer with 0.01% BSA, 1 mM dithiothreitol; and Modification 4: Reaction Buffer with 0.1% β-mercaptoethanol.

Lyn = Lyn (Homo sapiens, UniProt P07948); conditions: 100 μM; ATP 0 to 800 μM
[2] = Modification 1: Reaction Buffer with 0.1% BSA
[3] = Modification 2: Reaction Buffer with 1 mM dithiothreitol
[4] = Modification 3: Reaction Buffer with 0.01% BSA, 1 mM dithiothreitol
[5] = Modification 4: Reaction Buffer with 0.1% β-mercaptoethanol

unphosphorylated Lyn kinase, sequence (P07948 whole entry): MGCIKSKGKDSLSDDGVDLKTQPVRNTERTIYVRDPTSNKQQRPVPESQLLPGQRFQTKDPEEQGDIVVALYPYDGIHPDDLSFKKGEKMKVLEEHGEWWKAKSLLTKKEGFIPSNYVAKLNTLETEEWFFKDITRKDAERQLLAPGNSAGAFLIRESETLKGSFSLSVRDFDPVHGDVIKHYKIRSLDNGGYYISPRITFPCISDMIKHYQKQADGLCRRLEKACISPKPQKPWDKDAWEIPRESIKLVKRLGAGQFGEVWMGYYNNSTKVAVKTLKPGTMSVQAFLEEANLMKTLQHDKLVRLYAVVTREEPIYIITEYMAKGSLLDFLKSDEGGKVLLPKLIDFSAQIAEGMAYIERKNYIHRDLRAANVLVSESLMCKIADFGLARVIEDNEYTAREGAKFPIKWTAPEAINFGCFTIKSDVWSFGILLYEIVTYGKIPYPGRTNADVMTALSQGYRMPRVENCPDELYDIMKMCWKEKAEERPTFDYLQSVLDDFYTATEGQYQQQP
Lyn (h), sequence (P07948 whole entry): as above
IGF1R, sequence (P08069 31-1367, species assumed): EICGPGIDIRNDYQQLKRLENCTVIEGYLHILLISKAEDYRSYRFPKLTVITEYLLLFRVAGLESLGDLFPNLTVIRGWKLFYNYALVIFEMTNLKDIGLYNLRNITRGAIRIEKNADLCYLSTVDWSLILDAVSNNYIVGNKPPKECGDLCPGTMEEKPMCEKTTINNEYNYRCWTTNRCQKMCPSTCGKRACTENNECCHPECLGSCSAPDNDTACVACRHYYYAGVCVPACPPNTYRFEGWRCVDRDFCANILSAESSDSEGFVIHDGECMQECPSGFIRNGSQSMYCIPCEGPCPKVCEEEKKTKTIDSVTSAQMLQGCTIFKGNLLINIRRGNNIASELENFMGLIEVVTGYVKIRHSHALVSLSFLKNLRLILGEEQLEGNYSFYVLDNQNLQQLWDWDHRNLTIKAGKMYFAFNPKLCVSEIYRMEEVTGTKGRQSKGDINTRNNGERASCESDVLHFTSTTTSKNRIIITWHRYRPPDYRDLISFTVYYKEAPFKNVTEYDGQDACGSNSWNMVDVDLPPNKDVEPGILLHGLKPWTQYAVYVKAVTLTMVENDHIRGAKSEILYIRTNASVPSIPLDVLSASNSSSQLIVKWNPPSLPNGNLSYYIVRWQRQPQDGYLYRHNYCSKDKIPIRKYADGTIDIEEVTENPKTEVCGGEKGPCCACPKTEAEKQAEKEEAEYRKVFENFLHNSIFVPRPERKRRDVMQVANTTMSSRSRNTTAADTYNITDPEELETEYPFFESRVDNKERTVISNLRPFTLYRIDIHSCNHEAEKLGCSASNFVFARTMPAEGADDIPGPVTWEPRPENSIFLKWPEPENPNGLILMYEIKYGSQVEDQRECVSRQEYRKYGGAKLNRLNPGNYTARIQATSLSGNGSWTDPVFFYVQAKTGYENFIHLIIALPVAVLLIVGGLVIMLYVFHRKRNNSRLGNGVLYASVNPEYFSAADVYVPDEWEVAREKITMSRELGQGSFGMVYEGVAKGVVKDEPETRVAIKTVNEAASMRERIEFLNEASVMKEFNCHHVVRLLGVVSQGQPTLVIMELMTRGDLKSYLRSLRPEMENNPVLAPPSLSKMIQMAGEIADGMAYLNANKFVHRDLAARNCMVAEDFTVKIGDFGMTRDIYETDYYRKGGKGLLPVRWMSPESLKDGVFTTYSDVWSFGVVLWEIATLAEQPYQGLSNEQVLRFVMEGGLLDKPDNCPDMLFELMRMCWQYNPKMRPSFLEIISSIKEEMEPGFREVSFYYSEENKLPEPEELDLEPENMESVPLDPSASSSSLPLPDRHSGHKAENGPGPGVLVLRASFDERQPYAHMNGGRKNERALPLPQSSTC
Lyn, sequence (P07948 whole entry): as the sequence (P07948 whole entry) above
Fyn, sequence (P06241 whole entry, species assumed): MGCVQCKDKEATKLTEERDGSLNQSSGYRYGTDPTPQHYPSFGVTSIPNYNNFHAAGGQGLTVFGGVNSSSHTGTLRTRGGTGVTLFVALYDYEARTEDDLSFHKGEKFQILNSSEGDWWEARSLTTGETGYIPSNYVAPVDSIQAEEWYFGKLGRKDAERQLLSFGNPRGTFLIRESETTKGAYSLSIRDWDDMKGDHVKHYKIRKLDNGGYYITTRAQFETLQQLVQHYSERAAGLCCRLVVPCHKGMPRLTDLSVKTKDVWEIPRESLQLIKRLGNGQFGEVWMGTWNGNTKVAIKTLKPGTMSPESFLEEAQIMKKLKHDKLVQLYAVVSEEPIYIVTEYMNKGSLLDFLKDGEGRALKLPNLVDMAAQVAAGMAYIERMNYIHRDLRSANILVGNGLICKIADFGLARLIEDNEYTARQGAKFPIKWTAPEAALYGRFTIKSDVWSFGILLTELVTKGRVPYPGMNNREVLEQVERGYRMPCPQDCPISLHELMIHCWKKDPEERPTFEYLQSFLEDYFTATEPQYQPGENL
PKD2, sequence (Q9BZL6 whole entry): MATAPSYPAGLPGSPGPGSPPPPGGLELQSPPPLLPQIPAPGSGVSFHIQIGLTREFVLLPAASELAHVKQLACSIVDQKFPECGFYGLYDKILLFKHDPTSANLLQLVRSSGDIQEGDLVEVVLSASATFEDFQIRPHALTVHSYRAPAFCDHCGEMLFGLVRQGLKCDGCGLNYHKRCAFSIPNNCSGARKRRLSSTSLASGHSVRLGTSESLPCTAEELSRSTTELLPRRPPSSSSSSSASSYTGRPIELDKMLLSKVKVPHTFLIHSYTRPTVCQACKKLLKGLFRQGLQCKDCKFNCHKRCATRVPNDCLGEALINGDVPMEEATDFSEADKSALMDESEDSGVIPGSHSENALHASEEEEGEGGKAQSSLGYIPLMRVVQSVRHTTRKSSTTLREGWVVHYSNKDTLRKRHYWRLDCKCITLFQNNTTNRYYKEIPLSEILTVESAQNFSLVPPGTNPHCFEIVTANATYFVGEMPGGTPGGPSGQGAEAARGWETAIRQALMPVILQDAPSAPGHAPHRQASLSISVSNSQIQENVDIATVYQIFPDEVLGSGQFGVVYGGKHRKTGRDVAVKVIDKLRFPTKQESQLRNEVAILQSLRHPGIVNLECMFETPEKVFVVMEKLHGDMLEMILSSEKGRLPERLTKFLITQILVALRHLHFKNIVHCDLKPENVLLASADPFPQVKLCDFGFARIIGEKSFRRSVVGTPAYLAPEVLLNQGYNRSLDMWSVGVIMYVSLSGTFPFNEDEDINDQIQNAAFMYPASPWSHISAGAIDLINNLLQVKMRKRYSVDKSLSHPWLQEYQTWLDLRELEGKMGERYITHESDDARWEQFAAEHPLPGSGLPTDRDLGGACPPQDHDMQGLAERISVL
GSK3b, sequence (P49841 whole entry, species assumed): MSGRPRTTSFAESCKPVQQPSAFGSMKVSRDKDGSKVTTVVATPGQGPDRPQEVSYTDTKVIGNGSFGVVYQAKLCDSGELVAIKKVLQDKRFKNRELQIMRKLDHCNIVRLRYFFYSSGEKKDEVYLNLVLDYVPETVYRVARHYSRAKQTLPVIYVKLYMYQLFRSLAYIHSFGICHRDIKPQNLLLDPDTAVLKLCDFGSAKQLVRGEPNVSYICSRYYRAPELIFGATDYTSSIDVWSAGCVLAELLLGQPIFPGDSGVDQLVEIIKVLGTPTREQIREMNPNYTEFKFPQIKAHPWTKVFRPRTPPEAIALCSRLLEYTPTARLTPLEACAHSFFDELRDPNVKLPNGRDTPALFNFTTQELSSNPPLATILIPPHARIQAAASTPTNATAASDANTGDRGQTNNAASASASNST
RSK1, sequence (Q15418 whole entry, species assumed): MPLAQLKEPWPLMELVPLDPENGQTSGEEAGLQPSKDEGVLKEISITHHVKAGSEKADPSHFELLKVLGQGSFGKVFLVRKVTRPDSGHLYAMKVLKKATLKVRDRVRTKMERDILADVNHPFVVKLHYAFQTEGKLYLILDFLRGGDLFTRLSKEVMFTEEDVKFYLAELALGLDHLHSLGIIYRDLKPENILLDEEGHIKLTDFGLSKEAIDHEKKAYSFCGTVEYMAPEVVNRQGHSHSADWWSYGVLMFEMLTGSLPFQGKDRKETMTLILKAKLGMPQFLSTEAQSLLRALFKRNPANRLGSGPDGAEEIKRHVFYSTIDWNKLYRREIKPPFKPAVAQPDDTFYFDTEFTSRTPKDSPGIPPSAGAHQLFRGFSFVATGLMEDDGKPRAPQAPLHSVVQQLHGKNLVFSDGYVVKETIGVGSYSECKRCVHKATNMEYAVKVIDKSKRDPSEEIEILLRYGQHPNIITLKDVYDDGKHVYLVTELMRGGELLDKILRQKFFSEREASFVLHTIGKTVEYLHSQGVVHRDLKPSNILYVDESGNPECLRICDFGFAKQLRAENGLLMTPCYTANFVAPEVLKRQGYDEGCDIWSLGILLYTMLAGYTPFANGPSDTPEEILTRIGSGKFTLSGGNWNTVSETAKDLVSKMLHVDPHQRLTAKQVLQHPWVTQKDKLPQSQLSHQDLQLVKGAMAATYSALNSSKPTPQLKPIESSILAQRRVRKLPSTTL
CaMK2a, sequence (Q9UQM7 whole entry, species assumed): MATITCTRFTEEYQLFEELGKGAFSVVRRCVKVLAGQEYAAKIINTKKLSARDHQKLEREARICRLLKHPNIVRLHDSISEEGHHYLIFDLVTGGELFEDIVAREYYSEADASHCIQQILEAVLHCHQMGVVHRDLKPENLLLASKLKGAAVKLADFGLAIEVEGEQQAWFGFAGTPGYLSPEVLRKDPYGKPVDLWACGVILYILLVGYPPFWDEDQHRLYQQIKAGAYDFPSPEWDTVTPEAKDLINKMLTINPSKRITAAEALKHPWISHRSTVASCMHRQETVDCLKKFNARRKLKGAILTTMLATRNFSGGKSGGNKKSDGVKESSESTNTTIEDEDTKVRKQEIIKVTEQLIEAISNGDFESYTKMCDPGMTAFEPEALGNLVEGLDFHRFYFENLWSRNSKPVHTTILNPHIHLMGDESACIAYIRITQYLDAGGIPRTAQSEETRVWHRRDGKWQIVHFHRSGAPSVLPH

Cc1cccc(Oc2cnc(=O)[nH]c2)c1 [Compound 102]
COMPOUND 102 ACTIVITY (% KINASE ACTIVITY) (CaMK2a): 0.08%
COMPOUND 102 ACTIVITY (% KINASE ACTIVITY) (CaMK4): 17.35%
COMPOUND 102 ACTIVITY (% KINASE ACTIVITY) (FGFR3): −1.58%
COMPOUND 102 ACTIVITY (% KINASE ACTIVITY) (Fyn): −4.64%
COMPOUND 102 ACTIVITY (% KINASE ACTIVITY) (GSK3b): 2.47%
COMPOUND 102 ACTIVITY (% KINASE ACTIVITY) (IGF1R; IGF1R, 10 μM): −20.18%
inhibition at 10 µM (IGF1R; inhibition, read-out: insulin-like growth factor receptor activity inhibited by): 20.1%
COMPOUND 102 ACTIVITY (% KINASE ACTIVITY) (MSK1): 1.55%
COMPOUND 102 ACTIVITY (% KINASE ACTIVITY) (PKD2): −10.34%
COMPOUND 102 ACTIVITY (% KINASE ACTIVITY) (RSK1): 1.72%
activity of Lyn kinase (h) relative to the DMSO control (Lyn (h); 100 μM, 30 minutes pre-incubation on ice, 10 μM ATP, 40 minutes at room temperature): more than 3 fold
concentration dependence of Lyn kinase (h) activity (Lyn (h); 1, 3, 10, 30 and 100 μM): increased with Compound 102 concentration in a dose-dependent manner
EC50 (Lyn (h); 30 minutes pre-incubation on ice, 10 μM ATP): 650 nM
Fold-Activation [1, 2]: 1.1 fold
Fold-Activation [1, 3]: 1.2 fold
Fold-Activation [1, 4]: 1.6 fold
Fold-Activation [1, 5]: 2.4 fold
Fold-Activation ([1]; Reaction Buffer): 1.6 fold
% Phosphorylation of Substrate [1, 2]: 33.6%
% Phosphorylation of Substrate [1, 3]: 80.9%
% Phosphorylation of Substrate [1, 4]: 83.4%
% Phosphorylation of Substrate [1, 5]: 33.3%
% Phosphorylation of Substrate ([1]; Reaction Buffer): 16.2%
effect on the Km for ATP (Lyn): did not alter the Km for ATP
increase of the Vmax of Lyn kinase (Lyn): 3 fold
